According to patent publication US9708316B2 (BRISTOL-MYERS SQUIBB COMPANY, priority 2014, dated 2017):
Where two headings read alike, the source gives them in different places.

Legend:
HIS-TGFβR2 WT = HIS-TGFβR2 WT (Homo sapiens, UniProt P37173); test: HTRF probe-displacement assay, HIS-TGFβR2 WT; type: binding
HIS-TGFβR1 T204D = target: T1, HIS-TGFβR1 T204D (Homo sapiens, UniProt P36897, T204D); test: HTRF probe-displacement assay, HIS-TGFβR1 T204D; type: binding
T1 sequence (P36897 34-503 T204D): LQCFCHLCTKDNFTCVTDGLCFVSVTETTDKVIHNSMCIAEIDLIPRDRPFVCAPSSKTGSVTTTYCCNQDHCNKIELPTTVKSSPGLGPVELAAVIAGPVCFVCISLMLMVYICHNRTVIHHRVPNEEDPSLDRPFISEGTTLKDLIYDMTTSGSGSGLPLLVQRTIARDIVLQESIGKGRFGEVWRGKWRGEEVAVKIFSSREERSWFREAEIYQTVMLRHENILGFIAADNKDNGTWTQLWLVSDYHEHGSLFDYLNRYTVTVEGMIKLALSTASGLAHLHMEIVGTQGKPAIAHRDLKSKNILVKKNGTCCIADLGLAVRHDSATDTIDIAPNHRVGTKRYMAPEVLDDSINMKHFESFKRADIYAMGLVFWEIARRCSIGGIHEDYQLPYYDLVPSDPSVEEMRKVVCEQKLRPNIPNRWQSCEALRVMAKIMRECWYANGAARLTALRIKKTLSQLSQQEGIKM

HIS-TGFβR2 WT, sequence (P37173 23-567): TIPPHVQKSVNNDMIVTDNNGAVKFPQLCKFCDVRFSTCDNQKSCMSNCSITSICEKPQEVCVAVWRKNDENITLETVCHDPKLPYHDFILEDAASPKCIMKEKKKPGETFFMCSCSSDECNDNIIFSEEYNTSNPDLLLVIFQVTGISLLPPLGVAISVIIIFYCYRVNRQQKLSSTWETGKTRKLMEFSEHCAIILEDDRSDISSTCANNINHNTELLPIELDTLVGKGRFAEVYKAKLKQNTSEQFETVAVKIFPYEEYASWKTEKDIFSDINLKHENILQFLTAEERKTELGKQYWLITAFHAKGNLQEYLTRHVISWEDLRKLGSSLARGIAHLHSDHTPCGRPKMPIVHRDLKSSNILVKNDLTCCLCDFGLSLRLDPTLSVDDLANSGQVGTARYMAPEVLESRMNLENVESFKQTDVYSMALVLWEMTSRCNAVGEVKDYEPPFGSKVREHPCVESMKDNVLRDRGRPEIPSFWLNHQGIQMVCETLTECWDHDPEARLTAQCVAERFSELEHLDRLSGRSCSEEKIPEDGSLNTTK

IC50 (HIS-TGFβR2 WT) | IC50 (HIS-TGFβR1 T204D; read-out: TGFβR1 (μM) IC50) | IC50 (HIS-TGFβR1 T204D) | SMILES
> 15 µM | 0.019 µM |  | CC(=O)Nc1cc(-c2[nH]c3c(Cl)ccnc3c2-c2ccc(Cl)cn2)ccn1 [Example 63, N-{4-[7-Chloro-3-(5-chloropyridin-2-yl)-1H-pyrrolo[3,2-b]pyridin-2-yl]pyridin-2-yl}acetamide]
0.3 µM | 0.009 µM |  | CC(=O)Nc1cc(-c2[nH]c3c(Cl)ccnc3c2-c2cccc(F)n2)ccn1 [Example 64, N-{4-[7-Chloro-3-(6-fluoropyridin-2-yl)-1H-pyrrolo[3,2-b]pyridin-2-yl]pyridin-2-yl}acetamide]
> 15 µM | 0.01 µM |  | COc1cccc(-c2c(-c3ccnc(NC(C)=O)c3)[nH]c3cc(Cl)cnc23)n1 [Example 65, N-{4-[6-Chloro-3-(6-methoxypyridin-2-yl)-1H-pyrrolo[3,2-b]pyridin-2-yl]pyridin-2-yl}acetamide]
3.72 µM |  | 0.002 µM | CC(=O)Nc1cc(-c2[nH]c3cc(Cl)cnc3c2-c2cccc(C)n2)ccn1 [Example 66, N-{4-[6-Chloro-3-(6-methylpyridin-2-yl)-1H-pyrrolo[3,2-b]pyridin-2-yl]pyridin-2-yl}acetamide]
0.36 µM | 0.037 µM |  | CC(=O)Nc1cc(-c2[nH]c3cc(Cl)cnc3c2-c2cccc(CO)n2)ccn1 [Example 67, N-(4-{6-Chloro-3-[6-(hydroxymethyl)pyridin-2-yl]-1H-pyrrolo[3,2-b]pyridin-2-yl}pyridin-2-yl)acetamide]
> 15 µM | 0.96 µM |  | CC(=O)Nc1cc(-c2[nH]c3cc(Cl)cnc3c2-c2cccc(NCCO)n2)ccn1 [Example 68, N-[4-(6-Chloro-3-{6-[(2-hydroxyethyl)amino]pyridin-2-yl}-1H-pyrrolo[3,2-b]pyridin-2-yl)pyridin-2-yl]acetamide]
> 15 µM | 0.76 µM |  | COC(=O)c1cc(Cl)nc2c(-c3ccc(F)cn3)c(-c3ccnc(NC(C)=O)c3)[nH]c12 [Example 69, Methyl 5-chloro-2-(2-acetamidopyridin-4-yl)-3-(5-fluoropyridin-2-yl)-1H-pyrrolo[3,2-b]pyridine-7-carboxylate]
> 15 µM | 7.73 µM |  | COC(=O)c1cc(Cl)nc2c(-c3ccc(Cl)cn3)c(-c3ccnc(NC(C)=O)c3)[nH]c12 [Example 70, Methyl 5-chloro-3-(5-chloropyridin-2-yl)-2-(2-acetamidopyridin-4-yl)-1H-pyrrolo[3,2-b]pyridine-7-carboxylate]
4.38 µM | 0.27 µM |  | COC(=O)c1ccnc2c(-c3ccc(F)cn3)c(-c3ccnc(NC(C)=O)c3)[nH]c12 [Example 71, Methyl 2-(2-acetamidopyridin-4-yl)-3-(5-fluoropyridin-2-yl)-1H-pyrrolo[3,2-b]pyridine-7-carboxylate]
1.55 µM | 0.008 µM |  | O=C(CO)Nc1cc(-c2[nH]c3cc(Cl)cnc3c2-c2ccc(F)cn2)ccn1 [Example 72, N-{4-[6-Chloro-3-(5-fluoropyridin-2-yl)-1H-pyrrolo[3,2-b]pyridin-2-yl]pyridin-2-yl}-2-hydroxyacetamide]
15.5 µM | 0.019 µM |  | C[C@H](O)C(=O)Nc1cc(-c2[nH]c3cc(Cl)cnc3c2-c2ccc(F)cn2)ccn1 [Example 73]
2.6 µM | 0.001 µM |  | O=C(CN1CCOCC1)Nc1cc(-c2[nH]c3cc(Cl)cnc3c2-c2ccc(F)cn2)ccn1 [Example 74, N-{4-[6-Chloro-3-(5-fluoropyridin-2-yl)-1H-pyrrolo[3,2-b]pyridin-2-yl]pyridin-2-yl}-2-(morpholin-4-yl)acetamide]
1.03 µM | 0.005 µM |  | O=C(CNCCO)Nc1cc(-c2[nH]c3cc(Cl)cnc3c2-c2ccc(F)cn2)ccn1 [Example 75, N-{4-[6-Chloro-3-(5-fluoropyridin-2-yl)-1H-pyrrolo[3,2-b]pyridin-2-yl]pyridin-2-yl}-2-[(2-hydroxyethyl)amino]acetamide]
0.93 µM | 0.016 µM |  | COc1ccc(-c2c(-c3ccnc(NC(C)=O)c3)[nH]c3ccc(OC)nc23)cn1 [Example 76, N-(4-(5-Methoxy-3-(6-methoxypyridin-3-yl)-1H-pyrrolo[3,2-b]pyridin-2-yl)pyridin-2-yl)acetamide]
> 15 µM | 0.033 µM |  | COc1ccc2[nH]c(-c3ccnc(NC(C)=O)c3)c(-c3cccc(Cl)n3)c2n1 [Example 77]
0.16 µM | 0.003 µM |  | COc1ccc(-c2c(-c3ccnc(NC(C)=O)c3)[nH]c3cc(C#N)cnc23)cn1 [Example 78, N-(4-(6-Cyano-3-(6-methoxypyridin-3-yl)-1H-pyrrolo[3,2-b]pyridin-2-yl)pyridin-2-yl)acetamide]

IC50 (HIS-TGFβR2 WT) | IC50 (HIS-TGFβR1 T204D; read-out: TGFβR1 (μM) IC50) | IC50 (HIS-TGFβR1 T204D) | SMILES
0.16 µM | 0.007 µM |  | COc1ccc(-c2c(-c3ccnc(NC(C)=O)c3)[nH]c3cc(CN)cnc23)cn1 [Example 79, N-(4-(6-(Aminomethyl)-3-(6-methoxypyridin-3-yl)-1H-pyrrolo[3,2-b]pyridin-2-yl)pyridin-2-yl)acetamide]
0.083 µM | 0.007 µM |  | COc1ccc(-c2c(-c3ccnc(NC(C)=O)c3)[nH]c3c(C#N)ccnc23)cn1 [Example 80, N-(4-(7-Cyano-3-(6-methoxypyridin-3-yl)-1H-pyrrolo[3,2-b]pyridin-2-yl)pyridin-2-yl)acetamide]
0.26 µM | 0.014 µM |  | COc1ccc(-c2c(-c3ccnc(NC(C)=O)c3)[nH]c3c(CN)ccnc23)cn1 [Example 81, N-(4-(7-(Aminomethyl)-3-(6-methoxypyridin-3-yl)-1H-pyrrolo[3,2-b]pyridin-2-yl)pyridin-2-yl)acetamide]
4.05 µM | 0.006 µM |  | CNc1cc(-c2[nH]c3cc(Cl)cnc3c2-c2ccc(F)cn2)ccn1 [Example 82, 4-[6-Chloro-3-(5-fluoropyridin-2-yl)-1H-pyrrolo[3,2-b]pyridin-2-yl]-N-methylpyridin-2-amine]
> 15 µM | 0.002 µM |  | COc1ccc(-c2c(-c3ccnc(NC(C)=O)c3)[nH]c3cc(Br)cnc23)nc1 [Example 83, N-{4-[6-Bromo-3-(5-methoxypyridin-2-yl)-1H-pyrrolo[3,2-b]pyridin-2-yl]pyridin-2-yl}acetamide]
0.13 µM | 0.002 µM |  | COC(=O)Nc1cc(-c2[nH]c3cccnc3c2-c2ccc(OC)nc2)ccn1 [Example 84, Methyl N-{4-[3-(6-methoxypyridin-3-yl)-1H-pyrrolo[3,2-b]pyridin-2-yl]pyridin-2-yl}carbamate]
4.05 µM | 0.01 µM |  | COC(=O)Nc1cc(-c2[nH]c3cc(Cl)cnc3c2-c2ccc(F)cn2)ccn1 [Example 85, Methyl N-{4-[6-chloro-3-(5-fluoropyridin-2-yl)-1H-pyrrolo[3,2-b]pyridin-2-yl]pyridin-2-yl}carbamate]
> 15 µM | 0.008 µM |  | COc1ccc(-c2c(-c3ccnc(N)c3)[nH]c3cc(Cl)cnc23)nc1 [Example 86, 4-[6-Chloro-3-(5-methoxypyridin-2-yl)-1H-pyrrolo[3,2-b]pyridin-2-yl]pyridin-2-amine]
> 15 µM | 0.002 µM |  | COC(=O)Nc1cc(-c2[nH]c3cc(Cl)cnc3c2-c2ccc(OC)cn2)ccn1 [Example 87, Methyl N-{4-[6-chloro-3-(5-methoxypyridin-2-yl)-1H-pyrrolo[3,2-b]pyridin-2-yl]pyridin-2-yl}carbamate]
9.92 µM | 0.001 µM |  | CN1CCN(CC(=O)Nc2cc(-c3[nH]c4cc(Cl)cnc4c3-c3ccc(F)cn3)ccn2)CC1 [Example 88, N-{4-[6-Chloro-3-(5-fluoropyridin-2-yl)-1H-pyrrolo[3,2-b]pyridin-2-yl]pyridin-2-yl}-2-(4-methylpiperazin-1-yl)acetamide]
4.81 µM | 0.003 µM |  | O=C(CNCCCN1CCOCC1)Nc1cc(-c2[nH]c3cc(Cl)cnc3c2-c2ccc(F)cn2)ccn1 [Example 89, N-{4-[6-Chloro-3-(5-fluoropyridin-2-yl)-1H-pyrrolo[3,2-b]pyridin-2-yl]pyridin-2-yl}-2-{[3-(morpholin-4-yl)propyl]amino}acetamide]
> 15 µM | 0.019 µM |  | COc1ccc(-c2c(-c3ccnc(NC(C)=O)c3)[nH]c3cc(S(C)(=O)=O)cnc23)nc1 [Example 91, N-{4-[6-Methanesulfonyl-3-(5-methoxypyridin-2-yl)-1H-pyrrolo[3,2-b]pyridin-2-yl]pyridin-2-yl}acetamide]
> 15 µM | 0.002 µM |  | COc1ccc(-c2c(-c3ccnc(NC(C)=O)c3)[nH]c3cc(C#N)cnc23)nc1 [Example 92, N-{4-[6-Cyano-3-(5-methoxypyridin-2-yl)-1H-pyrrolo[3,2-b]pyridin-2-yl]pyridin-2-yl}acetamide]
> 15 µM | 0.003 µM |  | COc1ccc(-c2c(-c3ccnc(NC(C)=O)c3)[nH]c3cc(-c4c(C)noc4C)cnc23)nc1 [Example 93, N-{4-[6-(Dimethyl-1,2-oxazol-4-yl)-3-(5-methoxypyridin-2-yl)-1H-pyrrolo[3,2-b]pyridin-2-yl]pyridin-2-yl}acetamide]
> 15 µM | 0.004 µM |  | COc1ccc(-c2c(-c3ccnc(NC(C)=O)c3)[nH]c3cc(-c4c(C)nnn4C)cnc23)nc1 [Example 94, N-{4-[6-(Dimethyl-1H-1,2,3-triazol-5-yl)-3-(5-methoxypyridin-2-yl)-1H-pyrrolo[3,2-b]pyridin-2-yl]pyridin-2-yl}acetamide]
